Assay results published in patent US20260007681A1, “INDOLE DERIVATIVES AS ESTROGEN RECEPTOR DEGRADERS” (REGENTS OF THE UNIVERSITY OF MICHIGAN, priority 2022, published 2026).
Like-named read-outs stand apart in the source and are kept apart here.

Tests used:
[1] = Cell growth assay (WST-8) (Compounds B1-B278); assay type: cell-based; conditions: T47D cell line, WST-8, 4 days, read-out: Cell Growth Inhibition in T47D cell line IC50
Method in brief: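 Cells seeded at 1500/well overnight, treated one day later with compound doses for 4 days, then 10% WST-8 added for 2.5 h at 37° C in CO2. Absorbance at 450 nm, expressed relative to vehicle control over three independent repeats.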

ER = ER (Homo sapiens (Human), UniProt P03372); assay: In-cell western blot analysis of relative ER percentage (Compounds B1-B278); assay type: cell-based; conditions: ER degradation, 16 hours, read-out: ICW DC50
Method in brief: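 Cells seeded at 40,000 or 10,000 cells/well and treated with compound (final 0.5% DMSO) for 16 h, then formaldehyde-fixed, Triton-permeabilized and co-stained for ER and GAPDH with 680/800 secondaries; LI-COR plate read. ER level expressed relative to untreated/DMSO-treated wells set at 100%.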

Sequence of ER (P03372 whole entry): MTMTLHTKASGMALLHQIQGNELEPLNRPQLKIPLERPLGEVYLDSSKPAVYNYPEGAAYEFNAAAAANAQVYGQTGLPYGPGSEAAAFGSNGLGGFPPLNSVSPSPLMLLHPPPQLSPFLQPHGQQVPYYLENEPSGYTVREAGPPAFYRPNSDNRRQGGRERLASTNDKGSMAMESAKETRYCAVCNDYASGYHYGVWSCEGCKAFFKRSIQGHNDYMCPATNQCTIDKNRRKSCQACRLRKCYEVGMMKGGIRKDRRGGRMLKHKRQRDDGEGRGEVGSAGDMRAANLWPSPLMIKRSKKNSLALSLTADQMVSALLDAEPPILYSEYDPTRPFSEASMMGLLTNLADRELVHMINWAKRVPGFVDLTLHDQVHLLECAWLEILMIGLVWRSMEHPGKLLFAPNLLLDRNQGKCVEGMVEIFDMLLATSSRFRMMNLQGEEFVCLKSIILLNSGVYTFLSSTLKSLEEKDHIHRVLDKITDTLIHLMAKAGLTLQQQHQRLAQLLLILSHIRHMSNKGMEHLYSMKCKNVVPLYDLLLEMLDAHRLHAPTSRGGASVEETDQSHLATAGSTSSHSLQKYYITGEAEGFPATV

DC50 (ER) [nM]	SMILES	IC50 [1] [nM]	IC50 ([1]; 96 h) [nM]
10 to 100	C[C@@H]1Cc2c([nH]c3ccccc23)[C@@H](c2ccc(N3CCC4(CC3)CC(CN3CCN5c6cc7c(cc6OC[C@@H]5C3)C(=O)N(C3CCC(=O)NC3=O)C7)CO4)cn2)N1CC(F)(F)F (stereo partly drawn) [Compound B269, 3-((4aS)-3-((8-(6-((1S,3R)-3-methyl-2-(2,2,2-trifluoroethyl)-2,3,4,9-tetrahydro-1H-pyrido[3,4-b]indol-1-yl)pyridin-3-yl)-1-oxa-8-azaspiro[4.5]decan-3-yl)methyl)-8-oxo-1,2,3,4,4a,5,8,10-octahydro-9H-pyrazino[1′,2′:4,5][1,4]oxazino[2,3-f]isoindol-9-yl)piperidine-2,6-dione]	1 to 10	
10 to 100	C[C@@H]1Cc2c([nH]c3ccccc23)[C@@H](c2c(F)cc(N3CCC(CN4CCN5c6ccc7c(c6OC[C@H]5C4)CN(C4CCC(=O)NC4=O)C7=O)CC3)cc2F)N1CC(F)F (mixture of isomers) [Compound B253, 3-((RS)-7-((1-(4-((1R,3R)-2-(2,2-difluoroethyl)-3-methyl-2,3,4,9-tetrahydro-1H-pyrido[3,4-b]indol-1-yl)-3,5-difluorophenyl)piperidin-4-yl)methyl)-1-oxo-1,3,5,5a,6,7,8,9-octahydro-2H-pyrazino[1′,2′:4,5][1,4]oxazino[2,3-e]isoindol-2-yl)piperidine-2,6-dione]		< 1
> 100	C[C@@H]1Cc2c([nH]c3ccccc23)[C@@H](c2cnc(N3CCC4(CC3)CC(CN3CCN5c6ccc7c(c6OC[C@H]5C3)CN(C3CCC(=O)NC3=O)C7=O)CO4)nc2)N1CC(F)(F)CO (stereo partly drawn) [Compound B172, 3-((5aR)-7-((8-(5-((1R,3R)-2-(2,2-difluoro-3-hydroxypropyl)-3-methyl-2,3,4,9-tetrahydro-1H-pyrido[3,4-b]indol-1-yl)pyrimidin-2-yl)-1-oxa-8-azaspiro[4.5]decan-3-yl)methyl)-1-oxo-1,3,5,5a,6,7,8,9-octahydro-2H-pyrazino[1′,2′:4,5][1,4]oxazino[2,3-e]isoindol-2-yl)piperidine-2,6-dione]		< 1
< 10	C[C@@H]1Cc2c([nH]c3ccccc23)[C@@H](c2cnc(N3CCC4(CC3)CC(CN3CCN5c6cc7c(cc6OC[C@@H]5C3)C(=O)N(C3CCC(=O)NC3=O)C7)C4)nc2)N1CC(F)F (stereo partly drawn) [Compound B135, 3-((S)-3-((7-(5-((1R,3R)-2-(2,2-difluoroethyl)-3-methyl-2,3,4,9-tetrahydro-1H-pyrido[3,4-b]indol-1-yl)pyrimidin-2-yl)-7-azaspiro[3.5]nonan-2-yl)methyl)-8-oxo-1,2,3,4,4a,5,8,10-octahydro-9H-pyrazino[1′,2′:4,5][1,4]oxazino[2,3-f]isoindol-9-yl)piperidine-2,6-dione]		1 to 10
> 100	C[C@@H]1Cc2c([nH]c3ccccc23)[C@@H](c2cnc(N3CCC4(CCC(N5CCN6c7ccc8c(c7OC[C@H]6C5)CN(C5CCC(=O)NC5=O)C8=O)CC4)CC3)nc2)N1CC(F)F (stereo partly drawn) [Compound B163, 3-((R)-7-(3-(5-((1R,3R)-2-(2,2-difluoroethyl)-3-methyl-2,3,4,9-tetrahydro-1H-pyrido[3,4-b]indol-1-yl)pyrimidin-2-yl)-3-azaspiro[5.5]undecan-9-yl)-1-oxo-1,3,5,5a,6,7,8,9-octahydro-2H-pyrazino[1′,2′:4,5][1,4]oxazino[2,3-e]isoindol-2-yl)piperidine-2,6-dione]		> 10
> 100	C[C@@H]1Cc2c([nH]c3ccccc23)[C@@H](c2c(F)cc(N3CCC(CN4CCN5c6ccc7c(c6OC[C@H]5C4)CN(C4CCC(=O)NC4=O)C7=O)CC3)cc2F)N1CC(C)(C)F (mixture of isomers) [Compound B259, 3-((RS)-7-((1-(3,5-difluoro-4-((1R,3R)-2-(2-fluoro-2-methylpropyl)-3-methyl-2,3,4,9-tetrahydro-1H-pyrido[3,4-b]indol-1-yl)phenyl)piperidin-4-yl)methyl)-1-oxo-1,3,5,5a,6,7,8,9-octahydro-2H-pyrazino[1′,2′:4,5][1,4]oxazino[2,3-e]isoindol-2-yl)piperidine-2,6-dione]	< 1	
< 10	COc1cc(N2CCC3(CC2)CC(CN2CCN4c5cc6c(cc5OC[C@@H]4C2)C(=O)N(C2CCC(=O)NC2=O)C6)C3)ccc1[C@@H]1c2[nH]c3ccccc3c2C[C@@H](C)N1CC(F)F (stereo partly drawn) [Compound B141, 3-((S)-3-((7-(4-((1R,3R)-2-(2,2-difluoroethyl)-3-methyl-2,3,4,9-tetrahydro-1H-pyrido[3,4-b]indol-1-yl)-3-methoxyphenyl)-7-azaspiro[3.5]nonan-2-yl)methyl)-8-oxo-1,2,3,4,4a,5,8,10-octahydro-9H-pyrazino[1′,2′:4,5][1,4]oxazino[2,3-f]isoindol-9-yl)piperidine-2,6-dione]		1 to 10
10 to 100	C[C@@H]1Cc2c([nH]c3ccccc23)[C@@H](c2c(F)cc(N3CCC(CN4CCN5c6ccc7c(c6OC[C@H]5C4)CN(C4CCC(=O)NC4=O)C7=O)CC3)cc2F)N1CC(C)(C)F (mixture of isomers) [Compound B257, 3-((RS)-7-((1-(3,5-difluoro-4-((1R,3R)-2-(2-fluoro-2-methylpropyl)-3-methyl-2,3,4,9-tetrahydro-1H-pyrido[3,4-b]indol-1-yl)phenyl)piperidin-4-yl)methyl)-1-oxo-1,3,5,5a,6,7,8,9-octahydro-2H-pyrazino[1′,2′:4,5][1,4]oxazino[2,3-e]isoindol-2-yl)piperidine-2,6-dione]		< 1
> 100	C[C@@H]1Cc2c([nH]c3ccccc23)[C@@H](c2cnc(N3CCC(CCN4CCN5c6ccc7c(c6OC[C@H]5C4)CN(C4CCC(=O)NC4=O)C7=O)CC3)nc2)N1CC(F)F (stereo partly drawn) [Compound B160, 3-((R)-7-(2-(1-(5-((1R,3R)-2-(2,2-difluoroethyl)-3-methyl-2,3,4,9-tetrahydro-1H-pyrido[3,4-b]indol-1-yl)pyrimidin-2-yl)piperidin-4-yl)ethyl)-1-oxo-1,3,5,5a,6,7,8,9-octahydro-2H-pyrazino[1′,2′:4,5][1,4]oxazino[2,3-e]isoindol-2-yl)piperidine-2,6-dione]		1 to 10
10 to 100	C[C@@H]1Cc2c([nH]c3ccccc23)[C@@H](c2cnc(N3CC4(CC(CN5CCN6c7ccc8c(c7OC[C@H]6C5)CN(C5CCC(=O)NC5=O)C8=O)C4)C3)nc2)N1CC(F)F (stereo partly drawn) [Compound B179, 3-((R)-7-((2-(5-((1R,3R)-2-(2,2-difluoroethyl)-3-methyl-2,3,4,9-tetrahydro-1H-pyrido[3,4-b]indol-1-yl)pyrimidin-2-yl)-2-azaspiro[3.3]heptan-6-yl)methyl)-1-oxo-1,3,5,5a,6,7,8,9-octahydro-2H-pyrazino[1′,2′:4,5][1,4]oxazino[2,3-e]isoindol-2-yl)piperidine-2,6-dione]		> 10

SMILES	DC50 (ER) [nM]	IC50 [1] [nM]	IC50 ([1]; 96 h) [nM]
COc1cc(N2CC3(CCC(CN4CCC5(CC4)COc4c5ccc5c4CN(C4CCC(=O)NC4=O)C5=O)CC3)C2)ccc1[C@@H]1c2[nH]c3ccccc3c2C[C@@H](C)N1CC(F)F (stereo partly drawn) [Compound B129, 3-(1′-((2-(4-((1R,3R)-2-(2,2-difluoroethyl)-3-methyl-2,3,4,9-tetrahydro-1H-pyrido[3,4-b]indol-1-yl)-3-methoxyphenyl)-2-azaspiro[3.5]nonan-7-yl)methyl)-6-oxo-6,8-dihydro-2H,7H-spiro[furo[2,3-e]isoindole-3,4′-piperidin]-7-yl)piperidine-2,6-dione]	10 to 100		< 1
